pIC50: −log10 of the molar value.
target: GCN2 (Homo sapiens, UniProt Q9P2K8); test: GCN2 enzymatic endpoint assay: phosphorylation of GFP-eIF2α measured by TR-FRET (Lanthascreen); type: biochemical; conditions: tested as described in Example 77; compound and/or hydrochloride, dihydrochloride or trifluoroacetic acid salt; read-out: IC 50 Activity
Procedure, shortened: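 Endpoint kinase reaction with 2 μM ATP and 80 nM GFP-labelled eIF2α substrate, run at room temperature for 90 min, then stopped with EDTA. Phospho-substrate detected by terbium-antibody TR-FRET, activity taken as the 520/495 nm emission ratio.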

GCN2, sequence (Q9P2K8 whole entry): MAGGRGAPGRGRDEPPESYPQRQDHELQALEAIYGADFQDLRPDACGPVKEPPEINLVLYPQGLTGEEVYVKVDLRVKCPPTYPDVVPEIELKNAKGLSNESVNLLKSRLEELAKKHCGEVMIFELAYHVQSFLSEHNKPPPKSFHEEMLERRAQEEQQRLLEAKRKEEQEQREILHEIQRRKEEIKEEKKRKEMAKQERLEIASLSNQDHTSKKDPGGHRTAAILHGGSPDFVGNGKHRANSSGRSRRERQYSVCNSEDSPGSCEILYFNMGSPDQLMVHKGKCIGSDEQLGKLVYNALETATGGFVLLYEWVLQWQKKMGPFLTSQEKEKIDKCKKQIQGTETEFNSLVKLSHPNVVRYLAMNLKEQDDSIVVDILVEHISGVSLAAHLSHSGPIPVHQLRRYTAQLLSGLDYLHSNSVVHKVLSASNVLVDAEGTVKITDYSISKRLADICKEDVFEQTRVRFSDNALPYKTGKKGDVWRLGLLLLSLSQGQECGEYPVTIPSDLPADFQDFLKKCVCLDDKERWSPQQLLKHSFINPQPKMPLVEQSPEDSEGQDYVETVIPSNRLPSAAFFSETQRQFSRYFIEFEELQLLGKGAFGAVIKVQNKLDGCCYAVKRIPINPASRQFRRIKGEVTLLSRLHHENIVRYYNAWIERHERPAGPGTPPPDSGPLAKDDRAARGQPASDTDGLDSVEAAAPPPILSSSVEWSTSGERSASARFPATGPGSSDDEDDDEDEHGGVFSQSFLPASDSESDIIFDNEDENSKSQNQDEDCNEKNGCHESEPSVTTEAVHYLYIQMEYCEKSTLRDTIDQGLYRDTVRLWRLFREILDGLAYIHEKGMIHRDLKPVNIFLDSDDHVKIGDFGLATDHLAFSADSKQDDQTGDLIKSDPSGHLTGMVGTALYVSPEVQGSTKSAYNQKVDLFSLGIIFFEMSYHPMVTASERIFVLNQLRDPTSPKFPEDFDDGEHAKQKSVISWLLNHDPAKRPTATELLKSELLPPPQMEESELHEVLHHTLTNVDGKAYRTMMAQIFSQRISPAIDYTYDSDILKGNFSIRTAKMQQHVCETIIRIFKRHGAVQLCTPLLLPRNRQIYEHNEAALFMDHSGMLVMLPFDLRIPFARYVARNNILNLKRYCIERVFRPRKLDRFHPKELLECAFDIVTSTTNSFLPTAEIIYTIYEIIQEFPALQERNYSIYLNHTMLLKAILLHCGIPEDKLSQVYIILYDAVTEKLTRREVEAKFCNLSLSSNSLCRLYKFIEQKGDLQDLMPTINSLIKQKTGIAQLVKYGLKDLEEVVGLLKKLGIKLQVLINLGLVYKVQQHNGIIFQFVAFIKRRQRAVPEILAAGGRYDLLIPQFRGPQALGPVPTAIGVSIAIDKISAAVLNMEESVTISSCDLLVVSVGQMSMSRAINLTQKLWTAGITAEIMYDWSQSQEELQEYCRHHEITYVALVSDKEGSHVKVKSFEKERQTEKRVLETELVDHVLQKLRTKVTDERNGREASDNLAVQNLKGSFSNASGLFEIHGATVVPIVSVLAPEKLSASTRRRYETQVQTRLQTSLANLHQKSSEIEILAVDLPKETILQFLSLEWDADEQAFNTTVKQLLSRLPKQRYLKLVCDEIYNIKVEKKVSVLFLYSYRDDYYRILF

Compound	pIC50
CNC(=O)C1(CCS(C)(=O)=O)CC[C@@H](Nc2ncc3c(Br)nn(-c4ccc(-c5nnc(C)s5)cc4)c3n2)C1 (stereo partly drawn) [(3R)-3-[[3-bromo-1-[4-(5-methyl-1,3,4-thiadiazol-2-yl)phenyl]pyrazolo[3,4-d]pyrimidin-6-yl]amino]-N-methyl-1-(2-methylsulfonylethyl)cyclopentane-carboxamide]	6.70 to 7.60
CNC(=O)C1(C)CC[C@@H](Nc2ncc3c(Br)nn(-c4ccc(-c5cnn(CCOC)c5)cc4)c3n2)C1 (stereo partly drawn) [(3R)-3-[[3-bromo-1-[4-[1-(2-methoxyethyl)pyrazol-4-yl]phenyl]pyrazolo[3,4-d]pyrimidin-6-yl]amino]-N,1-dimethyl-cyclopentanecarboxamide]	6.70 to 7.60
CCN1CN(C(=O)[C@@H]2CC[C@@H](Nc3ncc4c(Br)nn(-c5cc(F)c6ncccc6c5)c4n3)C2)CC1=O [1-((1R,3R)-3-((3-bromo-1-(8-fluoroquinolin-6-yl)-1H-pyrazolo[3,4-d]pyrimidin-6-yl)amino)cyclopentane-1-carbonyl)-3-ethyl-imidazolidin-4-one]	6.70 to 7.60
COCCO[C@@H]1CCN(C(=O)[C@@H]2CC[C@@H](Nc3ncc4c(Br)nn(-c5ccc6ncccc6c5)c4n3)C2)C1 [((1R,3R)-3-((3-bromo-1-(quinolin-6-yl)-1H-pyrazolo[3,4-d]pyrimidin-6-yl)amino)cyclopentyl)((R)-3-(2-methoxyethoxy)pyrrolidin-1-yl)methanone]	6.70 to 7.60
C[C@]1(C(=O)O)C[C@H](Nc2ncc3c(Br)nn(-c4ccc5ncccc5c4)c3n2)C1	6.30 to 6.70
CNC(=O)[C@@H]1CC[C@@H](Nc2ncc3c(Br)nn(-c4ccn5nccc5c4)c3n2)C1 [(1R,3R)-3-[(3-bromo-1-pyrazolo[1,5-a]pyridin-5-yl-pyrazolo[3,4-d]pyrimidin-6-yl)amino]-N-methyl-cyclopentane-carboxamide]	6.70 to 7.60
O=C([C@@H]1CC[C@@H](Nc2ncc3c(Br)nn(-c4cc(F)c5ncccc5c4)c3n2)C1)N1CCN2C(=O)CC[C@@H]2C1 [(8aR)-2-[(1R,3R)-3-[[3-bromo-1-(8-fluoro-6-quinolyl)pyrazolo[3,4-d]pyrimidin-6-yl]amino]cyclopentane-carbonyl]-1,3,4,7,8,8a-hexahydro-pyrrolo[1,2-a]pyrazin-6-one]	> 7.60
CNC(=O)[C@]1(C(C)C)CC[C@@H](Nc2ncc3c(Br)nn(-c4cc([C@@H](C)N)c5nccnc5c4)c3n2)C1	> 7.60
Cc1nnc(-c2ccc(-n3nc(Br)c4cnc(N[C@@H]5CC[C@@](C)(CO)C5)nc43)cc2)s1 [[(1R,3R)-3-[[3-bromo-1-[4-(5-methyl-1,3,4-thiadiazol-2-yl)phenyl]pyrazolo [3,4-d]pyrimidin-6-yl]amino]-1-methyl-cyclopentyl]methanol]	6.70 to 7.60
CNC(=O)[C@H]1C[C@H](Nc2ncc3c(Br)nn(-c4cc(Cl)cc(CO)c4)c3n2)CO1 [(2R,4S)-4-[[3-bromo-1-[3-chloro-5-(hydroxymethyl)phenyl]pyrazolo [3,4-d]pyrimidin-6-yl]amino]-N-methyl-tetrahydrofuran-2-carboxamide]	6.70 to 7.60
C[C@@]1(C(=O)N2CCN3C(=O)CC[C@H]3C2)CC[C@@H](Nc2ncc3c(Br)nn(-c4cc(F)c5ncccc5c4)c3n2)C1 [(8aS)-2-[(1R,3R)-3-[[3-bromo-1-(8-fluoro-6-quinolyl)pyrazolo[3,4-d]pyrimidin-6-yl]amino]-1-methyl-cyclopentanecarbonyl]-1,3,4,7,8,8a-hexahydropyrrolo[1,2-a]pyrazin-6-one]	6.70 to 7.60
CNC(=O)[C@]1(C)CC[C@@H](Nc2ncc3c(Br)nn(-c4ccc5c(c4)CNC(=O)C5)c3n2)C1 [(1R,3R)-3-[[3-bromo-1-(3-oxo-2,4-dihydro-1H-isoquinolin-7-yl)pyrazolo [3,4-d]pyrimidin-6-yl]amino]-N,1-dimethyl-cyclopentanecarboxamide]	6.70 to 7.60

Source: patent US11046699B2, “Pyrazolo-pyrimidin-amino-cycloalkyl compounds and their therapeutic uses” (RAPT THERAPEUTICS, INC., priority 2018, dated 2021)
